# Measured values published in US10501482B2, “Compounds for treating spinal muscular atrophy” (Hoffmann-La Roche Inc., priority 2013, dated 2019).
# Counter-ions that a name gives are not always drawn.
# What was measured:
# SMN protein = SMN protein assay (HTRF) in cultured SMA patient fibroblast cells; assay type: cell-based; conditions: SMA Type 1 human fibroblasts GM03813, 48 hours; for EC1.5x SMN protein (EC1.5x concentration for SMN protein expression): 7-point concentration curve, concentration giving 1.5 times SMN protein vs vehicle; for max. fold increase (maximum fold increase of SMN protein): 7-point concentration data, fold vs vehicle control
# Outline: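 SMA patient fibroblasts seeded at 5,000 cells/well, treated 48 h at 37 °C in triplicate per concentration (7-point series). Lysed in RIPA with protease inhibitors; SMN read by HTRF (anti-SMN d2/kryptate, overnight RT), 665/620 nm ratio. ΔF vs blank, expressed as fold over vehicle; EC1.5x and maximum fold increase derived.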
# [1] = tested on: full length SMN2 minigene mRNA (FL SMN2mini) in HEK293H cells stably transfected with the SMN2-A minigene construct; test: SMN2 minigene mRNA splicing RT-qPCR assay in cultured cells; assay type: cell-based; conditions: Homo sapiens, HEK293-H, 24 hours, 7-point concentration curve, concentration giving 1.5-fold FL SMN2mini mRNA vs vehicle, read-out: EC1.5x minigene (EC1.5x concentration for production of full length SMN2 minigene mRNA)
# Procedure: The reverse transcription-quantitative PCR-based (RT-qPCR) assay is used to quantify the level of the full length SMN2 minigene (referred to herein by the term “FL SMN2mini”) mRNA containing SMN2 exon 7 in a HEK293H cell line stably transfected with said minigene and treated with a test compound.
# The SMN2-A minigene construct was prepared as described in International Patent Application WO2009/151546A1 page 145 paragraph [00400] to page 147 paragraph [00412](incl. FIG. 1 and FIG. 3 therein).
# HEK293H cells stably transfected with the SMN2-A minigene construct (10,000 cells/well) are seeded in 200 μL of cell culture medium (DMEM plus 10% FBS, with 200 μg/mL hygromycin) in 96-well flat-bottom plates and the plate is immediately swirled to ensure proper dispersal of cells and the formation of an even monolayer of cells. Cells are allowed to attach for 6 hours. […] A solution of test compound (1 μL, 200× in DMSO) is added to each cell-containing well and the plate is incubated for 24 hours in a cell culture incubator (37° C., 5% CO2, 100% relative humidity). 2 replicates are prepared for each test compound concentration. The cells are then lysed in the Cells-To-Ct lysis buffer and the lysate is stored at −80° C.
# Full length SMN2-A minigene and GAPDH mRNA are quantified using the primers and probes referenced in Table 1. Primer SMN Forward A (SEQ ID NO.1) hybridizes to a nucleotide sequence in exon 7 (nucleotide 22 to nucleotide 40), primer SMN Reverse A (SEQ ID NO.2) hybridizes to a nucleotide sequence in the coding sequence of Firefly luciferase, SMN Probe A (SEQ ID NO.3) hybridizes to a nucleotide sequence in exon 7 (nucleotide 50 to nucleotide 54) and exon 8 (nucleotide 1 to nucleotide 21). The combination of these three oligonucleotides detects only SMN1 or SMN2 minigenes (RT-qPCR) and will not detect endogenous SMN1 or SMN2 genes.
# The SMN forward and reverse primers are used at final concentrations of 0.4 μM. The SMN probe is used at a final concentration of 0.15 μM. The GAPDH primers are used at final concentrations of 0.2 μM and the probe at 0.15 μM.
# The SMN2-minigene GAPDH mix (15 μL total volume) is prepared by combining 7.5 μL of 2×RT-PCR buffer, 0.4 μL of 25×RT-PCR enzyme mix, 0.75 μL of 20×GAPDH primer-probe mix, 4.0075 μL of water, 2 μL of 10-fold diluted cell lysate, 0.06 μL of 100 μM SMN forward primer, 0.06 μL of 100 μM SMN reverse primer, and 0.225 μL of 100 μM SMN probe.
# PCR is carried out at the following temperatures for the indicated time: Step 1: 48° C. (15 min); Step 2: 95° C. (10 min); Step 3: 95° C. (15 sec); Step 4: 60° C. (1 min); then repeat Steps 3 and 4 for a total of 40 cycles.
# Each reaction mixture contains both SMN2-A minigene and GAPDH primers/probe sets (multiplex design), allowing simultaneous measurement of the levels of two transcripts.
# The increase in the abundance of the FL SMN2mini mRNA relative to that in cells treated with vehicle control is determined from real-time PCR data using a modified ΔΔCt method (as described in Livak and Schmittgen, Methods, 2001, 25:402-8). The amplification efficiency E is calculated from the slope of the amplification curve for FL SMN2mini and GAPDH individually. The abundance of FL SMN2mini and GAPDH mRNA are then calculated as (1+E)^−Ct, where Ct is the threshold value for each amplicon. The abundance of FL SMN2mini mRNA is normalized to GAPDH mRNA abundance. The normalized FL SMN2mini mRNA abundance from test compound-treated samples is then divided by normalized FL SMN2mini mRNA abundance from vehicle-treated cells to determine the level of FL SMN2mini mRNA relative to vehicle control.
# Table 2 provides EC1.5x concentrations for production of full length SMN2 minigene mRNA that was obtained from the 7-point concentration data generated according to the above procedure for particular compounds of the present invention.
SMILES,EC1.5x SMN protein (EC1.5x concentration for SMN protein expression) (SMN protein),max. fold increase (maximum fold increase of SMN protein) (SMN protein),EC (1.5-fold) [1]
"Cc1cn2cc(NC(=O)c3ccc(N4CCNCC4)nc3F)cc(F)c2n1 [Example 65, 2-fIuoro-N-(8-fluoro-2-methylimidazo[1,2-a]pyridin-6-yl)-6-(piperazin-1-yl)-nicotinamide]",0.1135 µM,1.7675,0.0762 µM
"Cc1cn2cc(NC(=O)c3ccc(N4CCNC(C)C4)nc3)cc(Cl)c2n1 (racemic) [Example 55, rac-N-(8-chloro-2-methylimidazo[1,2-a]pyridin-6-yl)-6-(3-methylpiperazin-1-yl)nicotinamide dihydrochloride]",0.7112 µM,1.8752,0.141 µM
"Cc1cn2cc(NC(=O)c3cnc(N4CCNCC4)cc3OCC(F)(F)F)cc(F)c2n1 [Example 71, N-(8-fluoro-2-methylimidazo[1,2-a]pyridin-6-yl)-6-(piperazin-1-yl)-4-(2,2,2-trifluoro-ethoxy)nicotinamide]",0.4077 µM,1.4815,0.077 µM
"Cc1cn2cc(NC(=O)c3ccc(C4CCNCC4)nc3)cc(F)c2n1 [Example 79, N-(8-fluoro-2-methylimidazo[1,2-a]pyridin-6-yl)-6-(piperidin-4-yl)nicotinamide dihydrochloride]",0.2559 µM,1.6574,0.0559 µM
"Cc1cn2cc(NC(=O)c3cnc(N4CCNC(C)C4)c(F)c3)cc(F)c2n1 (racemic) [Example 47, rac-5-fluoro-N-(8-fluoro-2-methyl-imidazo[1,2-a]-pyridin-6-yl)-6-(3-methylpiperazin-1-yl)nicotinamide hydrochloride]",0.611 µM,1.7065,0.396 µM
"COc1nc(N2CCNC(C)(C)C2)ccc1C(=O)Nc1cc(F)c2nc(C)cn2c1 [Example 75, 6-(3,3-dimethyl-piperazin-1-yl)-N-(8-fluoro-2-methyl-imidazo[1,2-a]-pyridin-6-yl)-2-methoxynicotinamide]",0.3061 µM,1.7035,0.0654 µM
"Cc1cn2cc(NC(=O)c3ncc(N4CCNC(C)C4)cc3F)cc(F)c2n1 (racemic) [Example 48, rac-3-fluoro-N-(8-fluoro-2-methyl-imidazo[1,2-a]-pyridin-6-yl)-5-(3-methylpiperazin-1-yl)picolinamide hydrochloride]",0.0621 µM,1.738,0.0164 µM
"Cc1nc2c(F)cc(NC(=O)c3ccc(N4CCNCC4)nc3)cc2o1 [Example 26, N-(4-Fluoro-2-methylbenzo-oxazol-6-yl)-6-piperazin-1-yl-nicotinamide]",0.2853 µM,1.8316,0.0445 µM
"Cc1cn2cc(NC(=O)c3ccc(N4CCNCC4)cc3)nc2c(C)n1 [Example 1, N-(6,8-dimethylimidazo[1,2-a]pyrazin-2-yl)-4-(piperazin-1-yl)benzamide]",0.7747 µM,1.6736,0.0316 µM
"COc1cc(N2CCNC(C)C2)ncc1C(=O)Nc1cc(F)c2nc(C)cn2c1 (racemic) [Example 76, rac-N-(8-fluoro-2-methylimidazo[1,2-a]pyridin-6-yl)-4-methoxy-6-(3-methylpiperazin-1-yl)nicotinamide]",0.1629 µM,1.7274,0.0187 µM
"Cc1nc2ccc(NC(=O)c3ccc(N4CCNC(C)C4)cc3F)cc2o1 (racemic) [Example 38, rac-2-fluoro-N-(2-methylbenzo[d]-oxazol-6-yl)-4-(3-methylpiperazin-1-yl)benzamide dihydrochloride]",0.6124 µM,1.8706,0.472 µM
"Cc1cn2cc(NC(=O)c3ccc(N4CCNC(C)C4)cc3F)c(C)cc2n1 (racemic) [Example 52, rac-N-(2,7-dimethyl-imidazo[1,2-a]-pyridin-6-yl)-2-fluoro-4-(3-methyl-piperazin-1-yl)-benzamide dihydrochloride]",0.1518 µM,1.8152,0.04 µM
"Cc1cn2cc(NC(=O)c3ccc(N4CCNCC4)nc3)cc(C(F)(F)F)c2n1 [Example 19, N-(2-methyl-8-(trifluoromethyl)-imidazo[1,2-a]-pyridin-6-yl)-6-(piperazin-1-yl)-nicotinamide]",1.3818 µM,1.664,0.267 µM
"Cc1cn2cc(NC(=O)c3ccc(N4CCN5CCC[C@H]5C4)cc3F)ccc2n1 [Example 31, (S)-2-fluoro-4-(hexahydropyrrolo[1,2-a]pyrazin-2(1H)-yl)-N-(2-methylimidazo[1,2-a]pyridin-6-yl)benzamide]",0.2746 µM,1.7849,0.119 µM
"Cc1cn2cc(NC(=O)c3ccc(C4CCN(C)CC4)nc3)ccc2n1 [Example 78, N-(2-methylimidazo[1,2-a]pyridin-6-yl)-6-(1-methylpiperidin-4-yl)nicotinamide]",1.013 µM,1.7897,0.622 µM
"Cc1cn2cc(NC(=O)c3ccc(N4CCN(C)CC4)cc3F)nc2c(C)n1 [Example 4, N-(6,8-dimethyl-imidazo[1,2-a]-pyrazin-2-yl)-2-fluoro-4-(4-methylpiperazin-1-yl)benzamide]",0.5614 µM,1.769,0.232 µM
"Cc1cn2cc(NC(=O)c3ccc(N4CCNC(C)C4)cc3F)ccc2n1 (racemic) [Example 18, rac-2-fluoro-N-(2 methylimidazo-[1,2-a]pyridin-6-yl)-4(3-methyl-piperazin-1-yl)-benzamide]",0.1346 µM,1.7677,0.0523 µM
